Assay results reported in a melting point compilation (Tetko et al.; mined from patent text by program, amines drawn as free bases though some values may be those of a salt).

Row | SMILES | melting point [°C]
1 | CC(C)(C)OC(=O)N1CCN(c2ccc(N3CC(CO)OC3=O)cc2F)CC1 (centres undefined) | 144 to 146
2 | CC(C)NCCC(CCN1CCCCC1)(C(N)=O)c1ccccc1Cl (centres undefined) | 134 to 137
3 | O=C(O)c1cccnc1NCc1ccccc1 | 148
4 | CN1CCN(c2cccc3ccc(O)cc23)CC1 | 112
5 | CC(=O)N(C)CC(=O)c1ccc2c(c1)OCO2 | 99 to 101
6 | CCCC(=O)c1cc2c(s1)CCC1CC(=O)N(c3ccc(Cl)cc3)N=C21 (centres undefined) | 157 to 159
7 | CCC(C)c1ccccc1SC1=C(O)CC(c2ccccc2)(c2ccccc2)OC1=O (centres undefined) | 161 to 162
8 | COC(=O)c1ccccc1NC(=S)c1ccc(OC)nc1 | 133 to 140
9 | COc1cc2c(cc1OC)N(C(=O)c1ccc(-c3ccccc3OC)c(C)c1)Cc1ccc(C(=O)N(C)CC(O)C(O)C(O)C(O)CO)n1C2 (centres undefined) | 110 to 120
10 | COc1cc2c(c3c1OC(C)(C)C3)C(c1cccc(C(=O)NC3CCNC3=O)c1)=NC(C)(C)C2 (centres undefined) | 191 to 193
11 | O=C(OCCS(=O)(=O)CCCOCCc1ccccc1)c1ccccc1 | 65.5
12 | CC1(C)COc2ccc(Cl)cc21 | 64 to 66
13 | COCCCn1nnnc1-c1cc(Br)c(OCc2ccccc2)cc1OCc1ccccc1 | 92 to 93
14 | C[C@@H](O)c1nccc(N2CCc3ccc(S(=O)(=O)N(C)C)cc3C2)n1 | 120 to 122
15 | C=CCOC1=C(O)[C@@H](CC/C=C\CCCCCCCCCCCCCC)OC1=O | 49 to 53
16 | NCCCCc1ccc(C2=NNC(=O)CC2)cc1 | 167 to 168
17 | COc1cccc2c1OC(C(=O)N1CCC(NC(=O)Nc3ccccc3)CC1)CC2 (centres undefined) | 215 to 216
18 | CC1CC(=O)NN=C1c1ccc(NC(=O)C2CC2(Cl)Cl)cc1 (centres undefined) | 252 to 253
19 | CC(=O)Oc1c2c(c3ccccc3c1OC(C)=O)N(C(C)=O)c1ccccc1S2 | 213 to 214
20 | CS(=O)(=O)c1ccc(-c2oc3ccccc3c(=O)c2-c2ccccn2)cc1 | 203 to 204
21 | CC(O)c1cc(C[C@H](NC(=O)c2c(Cl)cccc2Cl)C(=O)O)ccc1-c1ccccc1 (some centres undefined) | 115 to 117
22 | COc1ccc(C2(C#N)CCC(NS(C)(=O)=O)CC2)c2c1oc1ccccc12 (centres undefined) | 176 to 178
23 | CCc1ccc(NC(=O)OCc2ccccc2)nc1 | 125 to 127
24 | CC1(C)c2ccccc2N2Cc3cc(N=Nc4ccc([N+](=O)[O-])cc4)ccc3OC21c1ccccc1 (centres undefined) | 200
25 | Cc1nc(N2CC(Cc3ccccc3)CC2=O)sc1C(=O)NCc1ccccc1 (centres undefined) | 143 to 144

Continued, values first:

Row | melting point [°C] | SMILES
26 | 234 to 240 | Cc1oc2cc(NC(=O)C(=O)O)ccc2c(=O)c1C
27 | 79 to 81 | C=CCc1c(F)c(F)c(NN)c(F)c1F
28 | > 270 | CC(C)(C)c1cc(-c2nnc(NC(N)=O)s2)cc(C(C)(C)C)c1O
29 | 134 to 135 | Cc1cc(S(=O)(=O)Nc2ccc(Cl)cc2)c2c(C)ccc(C(C)C)cc1-2
30 | 191 | CCCOC(=O)c1c(C)nsc1NC(=O)NC
31 | 158 | Cc1ccc(CNCC2(F)CCN(C(=O)c3ccc(F)c(F)c3)CC2)nc1
32 | 131 to 136 | C[C@]1(CN2CCN(NCc3ccc(C(F)(F)F)cc3)CC2)Cn2cc([N+](=O)[O-])nc2O1
33 | 86.4 | CCC1(CC)CSc2ccccc2N(c2ccccc2)C1=O
34 | 178 to 181 | CN1Cc2ccccc2C(=O)c2c(CC(=O)O)cccc21
35 | 133 to 134 | CCOC(=O)C1=C(COC)NC(COC)=C(C(=O)OCC)C1c1ccccc1C(F)(F)F
36 | 87 to 88 | CC(=O)OCC1OC(n2cc(F)c(=O)[nH]c2=O)CC1OCc1ccccc1 (centres undefined)
37 | 182 to 184 | O=C(Nc1ccc(S(=O)(=O)F)cc1)c1cc(Cl)ccc1[N+](=O)[O-]
38 | 167 to 168 | O=S(=O)(Nc1nccnc1OCc1ccccn1)c1cccc(Cl)c1Cl
39 | 162 | COc1nc(C)nc(N(C)C(=O)NS(=O)(=O)c2ccccc2OC(F)(F)F)n1
